Assay results: publication PMC10526274, “Epithelial-Immune Cell Crosstalk Determines the Activation of Immune Cells In Vitro by the Human Cathelicidin LL-37 at Low Physiological Concentrations” (Biomolecules, 2023)
Several values for one entry are separate records, joined by “and”; a condition that tells them apart may be missing. Identical values can stand only once.

Tested on: Caco-2/moDCs co-culture
Experiment: Multiplex xMAP cytokine levels, Caco-2/moDCs co-culture stimulated with LL-37
Type: cell-based, human
Settings: moDCs/Caco-2 co-culture, 1 µM LL-37, 24 h, n=2
Procedure: Caco-2 cell line (ATCC HTB-37) was cultured in a humidified CO2-incubator (5% CO2, 37 °C) in the complete DMEM/F12 (1:1) medium (Gibco, Waltham, MA, USA) containing 10% fetal bovine serum (FBS, Gibco) and 1X antibiotic–antimycotic solution (Gibco). To stabilize the cell phenotype, Caco-2 cells have been subcultivated three times before seeding on the filter supports. Then, Caco-2 cells were seeded at a density of 2 × 10^5 cells/cm^2 onto 24-well Millicell cell culture inserts (PC, 0.4-μm pore size, 0.6 cm^2 surface area, cat. #PIHP01250) (Millipore, Burlington, MA, USA), precoated with 0.2% bovine gelatin (Sigma-Aldrich, Saint Louis, MO, USA). After seeding, Caco-2 cells were grown in the same complete medium with re-feeding every 2–3 days until polarization of the monolayer occurred. The functional polarity of the monolayers was developed when transepithelial electrical resistance (TEER) between the apical and basolateral surfaces of the monolayers reached […] as measured by the electrical resistance system Millicell-ERS Voltohmmeter (Millipore, Burlington, MA, USA). Grown cell monolayers were used in transport and cytokine production experiments between the 21st and 29th days.
Peripheral blood mononuclear cells (PBMCs) from a healthy donor were purchased from the American Type Culture Collection (ATCC PCS-800-011). Blood monocytes were isolated from PBMCs by plastic adhesion. Mature monocyte-derived dendritic cells (moDCs) were generated in vitro from peripheral blood monocytes, according to Nair et al.. Briefly, monocytes were cultured in a humidified CO2-incubator (5% CO2, 37 °C) in the complete RPMI-1640 medium (Gibco) with 10% FBS, antibiotics, and supplemented with a cytokine cocktail containing 500 U/mL rhIL-4 and 800 U/mL rhGM-CSF (both Sci-Store, Moscow, Russia). On the third day, the medium was replaced by the same fresh medium with FBS, antibiotics, and the cytokine cocktail. Induction of maturation of the immature monocyte-derived dendritic cells was performed on the 5th day by replacing the medium with the complete RPMI-1640 medium (Gibco) with 10% FBS and antibiotics, supplemented with a cytokine cocktail containing 500 U/mL rhIL-4, 800 U/mL rhGM-CSF (both Sci-Store, Moscow, Russia), and 100 U/mL rhTNF-α (Sigma-Aldrich), and subjected to subsequent incubation of the culture for 4 more days.
Primary blood monocytes, moDCs, and NKT cells were seeded in 600 µL of complete RPMI-1640 with 10% Human AB serum (Capricorn Scientific, Ebsdorfergrund, Germany) and supplemented with 1X antibiotic–antimycotic solution into the wells of 24-well plates at a density of 3–7 × 10^5 cells/well 24 h before the experiment. Then, 24 h later, the medium in each well was replaced by the same medium with 1 µM of LL-37 for the sample wells or fresh medium alone for the control wells, and the permeable inserts with the Caco-2 monolayer with TEER > 400 Ω × cm^2, containing 400 μL of the complete medium in their apical chamber, were immediately placed into the appropriate wells. Also, inserts with the Caco-2 monolayer were placed in cell-free wells of 24-well plates in the same complete RPMI-1640 medium with or without 1 µM of LL-37 as controls. Cells were kept in a CO2-incubator (5% CO2, 37 °C) for another 24 h. Then, culture medium from each well was collected, centrifuged, and frozen at −70 °C.
To quantitatively evaluate a broad spectrum of analytes secreted by human cell cultures at the protein level, multiplex xMAP technology was used. […]

Substance “LL-37: the only human cathelicidin, host defense antimicrobial peptide of 37 a.a. residues, produced by solid-phase peptide synthesis” has an IL-2 level (control 0.75) of 1.12 pg/mL, an FLT-3L level (control 0.87) of 0.93 pg/mL and an IL-3 level (control 0.91) of 0.91 pg/mL. The IFNg level (control 2) was 2.28 pg/mL, the IL-18 level (control 2.49) was 1.42 pg/mL and the IL-15 level (control 3.19) was 3.42 pg/mL. For the same substance, the IL-4 level (control 4.19) was 6.58 pg/mL, the IL-5 level (control 4.46) was 2.93 pg/mL and the TGF-a level (control 5.8) was 5.22 pg/mL. The IL-1b level (control 5.83) was 5.83 pg/mL, the EGF level (control 6.26) was 6.51 pg/mL and the IL-9 level (control 7.45) was 7.45 pg/mL. For the same substance, the IFNa2 level (control 8.64) was 10.16 pg/mL, the TNFb level (control 9.34) was 15.39 pg/mL and the GM-CSF level (control 10.7) was 8.75 pg/mL. It also gave an IL-1RA level (control 11.1) of 13.57 pg/mL, a G-CSF level (control 16.25) of 14.89 pg/mL and a Fractalkine level (control 22.95) of 25.92 pg/mL. For the same substance, the IL-6 level (control 23.82) was 26.83 pg/mL, the IL-22 level (control 26.11, p = 0.10) was 37 pg/mL and 37.22 pg/mL and the TNFa level (control 41.39) was 44.26 pg/mL. For the same substance, the IL-13 level (control 43.59) was 50.71 pg/mL, the FGF-2 level (control 47.27) was 47.27 pg/mL and the “IL-12 (p40) level” value (control 57.35) was 55.01 pg/mL. It also gave a GROa level (control 60.81) of 70.33 pg/mL, an IL-27 level (control 63.66) of 70.72 pg/mL and a PDGF-AB/BB level (control 72.4) of 83.52 pg/mL. The IL-10 level (control 81.69, p = 0.0035) was 52 pg/mL and 52.63 pg/mL, the IP-10 level (control 90.92) was 118.06 pg/mL and the sCD40L level (control 95.47) was 95.47 pg/mL. The RANTES level (control 142.05) was 223.43 pg/mL, the M-GSF level (control 168.7) was 172.56 pg/mL and the PDGF-AA level (control 252.85) was 237.55 pg/mL. The MCP-3 level (control 376.42) was 372.12 pg/mL, the VEGFa level (control 723.09) was 1786 pg/mL and the MIP-1a level (control 1271) was 1487 pg/mL. For the same substance, the MIP-1b level (control 1340) was 1789 pg/mL, the MCP-1 level (control 2519) was 1925 pg/mL and the IL-8 level (control 2799) was 3052 pg/mL. The MIG level (control 25746) was 25834 pg/mL, the IL-7 level (control <0.30) was <0.30↓ pg/ml and the IL-17A level (control <0.70) was <0.70↓ pg/ml. The IL-1a level (control <1.30) was <1.30↓ pg/ml, the “IL-12 (p70) level” value (control <1.71) was <1.71↓ pg/ml and the Eotaxin level (control <2.91) was 3.03 pg/mL. For the same substance, the IL-17F level (control <12.19) was <12.19↓ pg/ml, the IL-17E/IL-25 level (control <19.43) was <19.43↓ pg/ml and the MDC level (control >14590) was 6291 pg/mL.
